# pIC50: −log10 of the molar value.
# What was measured:
# A549 [1] = experiment: Antiproliferative activity against human A549 cells assessed as cell growth inhibition incubated for 72 hrs by CellTiter96 Aqueous one solution cell proliferation assay; format: functional, cell-based; conditions: A549, 72 h
# A549 [2] = experiment: Antiproliferative activity against human A549 cells assessed as cell growth inhibition; format: functional, cell-based
# HeLa [3] = experiment: Antimitotic activity against human HeLa cells assessed as proportion of cells with irregular spindles at 4 nM measured after 16 to 18 hrs by DAPI-staining based fluorescence microscopy analysis relative to control; format: functional
# HeLa [4] = experiment: Antimitotic activity against human HeLa cells assessed as proportion of cells with diffuse alpha-tubulin at 12 nM measured after 16 to 18 hrs by DAPI-staining based fluorescence microscopy analysis relative to control; format: functional
# HeLa [5] = experiment: Antimitotic activity against human HeLa cells assessed as proportion of cells with irregular spindles at 8 nM measured after 16 to 18 hrs by DAPI-staining based fluorescence microscopy analysis relative to control; format: functional
# HeLa [6] = experiment: Antimitotic activity against human HeLa cells assessed as proportion of cells with bipolar spindles at 8 nM measured after 16 to 18 hrs by DAPI-staining based fluorescence microscopy analysis relative to control; format: functional
# HCT-116 [7] = experiment: Antitumor activity against human HCT116 cells xenografted in iv dosed BALB/c nude mouse assessed as tumor growth inhibition administered once daily on day 1,3,5,8,10,12,15,17,19 and measured on day 22 by caliper method; format: functional, organism-based
# HeLa [8] = experiment: Antimitotic activity against human HeLa cells assessed as proportion of mitotic cells at 4 nM measured after 16 to 18 hrs by DAPI-staining based fluorescence microscopy analysis relative to control; format: functional
# HeLa [9] = experiment: Antimitotic activity against human HeLa cells assessed as proportion of mitotic cells at 8 nM measured after 16 to 18 hrs by DAPI-staining based fluorescence microscopy analysis relative to control; format: functional
# HeLa [10] = experiment: Antimitotic activity against human HeLa cells assessed as proportion of cells with diffuse alpha-tubulin at 8 nM measured after 16 to 18 hrs by DAPI-staining based fluorescence microscopy analysis relative to control; format: functional
# HCT-116 [11] = experiment: Antiproliferative activity against human HCT116 cells assessed as cell growth inhibition incubated for 72 hrs by CellTiter96 Aqueous one solution cell proliferation assay; format: functional, cell-based; conditions: HCT-116, 72 h
# HeLa [12] = experiment: Antimitotic activity against human HeLa cells assessed as proportion of cells with bipolar spindles at 12 nM measured after 16 to 18 hrs by DAPI-staining based fluorescence microscopy analysis relative to control; format: functional
# HeLa [13] = experiment: Antimitotic activity against human HeLa cells assessed as proportion of cells with microtubule disruption around the condensed chromosomes and unseparated centrosome at 12 nM measured after 16 to 18 hrs by anti-alpha-tubulin/anti-gamma-tubulin antibodies based immunostaining/DAPI-staining based fluorescence microscopy analysis relative to control; format: functional
# HeLa [14] = experiment: Antimitotic activity against human HeLa cells assessed as proportion of cells with microtubule disruption around the condensed chromosomes and unseparated centrosome at 16 nM measured after 16 to 18 hrs by anti-alpha-tubulin/anti-gamma-tubulin antibodies based immunostaining/DAPI-staining based fluorescence microscopy analysis relative to control; format: functional
# HeLa [15] = experiment: Antimitotic activity against human HeLa cells assessed as proportion of mitotic cells at 16 nM measured after 16 to 18 hrs by DAPI-staining based fluorescence microscopy analysis relative to control; format: functional
# HeLa [16] = experiment: Antimitotic activity against human HeLa cells assessed as proportion of cells with bipolar spindles at 4 nM measured after 16 to 18 hrs by DAPI-staining based fluorescence microscopy analysis relative to control; format: functional
# HeLa [17] = experiment: Antimitotic activity against human HeLa cells assessed as proportion of cells with microtubule disruption around the condensed chromosomes and unseparated centrosome at 8 nM measured after 16 to 18 hrs by anti-alpha-tubulin/anti-gamma-tubulin antibodies based immunostaining/DAPI-staining based fluorescence microscopy analysis relative to control; format: functional
# HCT-116 [18] = experiment: Antitumor activity against human HCT116 cells xenografted in BALB/c nude mouse assessed as tumor growth inhibition at 10 mg/kg, iv qd administered on day 1,3,5,8,10,12,15,17,19 and measured on day 22 by caliper method relative to control; format: functional; conditions: HCT-116, iv, read-out: TGI
# HeLa [19] = experiment: Antimitotic activity against human HeLa cells assessed as proportion of cells with bipolar spindles at 16 nM measured after 16 to 18 hrs by DAPI-staining based fluorescence microscopy analysis relative to control; format: functional
# HeLa [20] = experiment: Antimitotic activity against human HeLa cells assessed as proportion of cells with diffuse alpha-tubulin at 16 nM measured after 16 to 18 hrs by DAPI-staining based fluorescence microscopy analysis relative to control; format: functional
# HeLa [21] = experiment: Antimitotic activity against human HeLa cells assessed as proportion of mitotic cells at 12 nM measured after 16 to 18 hrs by DAPI-staining based fluorescence microscopy analysis relative to control; format: functional
# HeLa [22] = experiment: Antimitotic activity against human HeLa cells assessed as proportion of cells with diffuse alpha-tubulin at 4 nM measured after 16 to 18 hrs by DAPI-staining based fluorescence microscopy analysis relative to control; format: functional
# HeLa [23] = experiment: Antimitotic activity against human HeLa cells assessed as proportion of cells with irregular spindles at 16 nM measured after 16 to 18 hrs by DAPI-staining based fluorescence microscopy analysis relative to control; format: functional
# HCT-116 [24] = experiment: Antitumor activity against human HCT116 cells xenografted in BALB/c nude mouse assessed as tumor growth inhibition at 20 mg/kg, iv qd administered on day 1,3,5,8,10,12,15,17,19 and measured on day 22 by caliper method relative to control; format: functional; conditions: HCT-116, iv, read-out: TGI
# HeLa [25] = experiment: Antimitotic activity against human HeLa cells assessed as proportion of cells with irregular spindles at 12 nM measured after 16 to 18 hrs by DAPI-staining based fluorescence microscopy analysis relative to control; format: functional
# HeLa [26] = experiment: Antimitotic activity against human HeLa cells assessed as proportion of cells with microtubule disruption around the condensed chromosomes and unseparated centrosome at 4 nM measured after 16 to 18 hrs by anti-alpha-tubulin/anti-gamma-tubulin antibodies based immunostaining/DAPI-staining based fluorescence microscopy analysis relative to control; format: functional
compound,measurement,setting,value
COc1ccc(C(C)(O)c2nc(N3CC3)nc3ccccc23)cc1 (centres undefined),pIC50,A549 [1],6.66
COc1ccc(C(C)(O)c2nc(C3CC3)nc3ccccc23)cc1 (centres undefined),pIC50,A549 [1],6.20
COc1ccc(C(C)(O)c2nc(N3CCC(F)(F)CC3)nc3ccccc23)cc1 (centres undefined),pIC50,A549 [1],5.31
COc1ccc(C(C)(O)c2nc(-c3ccc(F)cc3)nc3ccccc23)cc1 (centres undefined),pIC50,A549 [1],7.32
COc1ccc(C(C)(O)c2ncnc3cc(F)ccc23)cc1 (centres undefined),pIC50,A549 [1],5.33
COc1ccc(C(C)(O)c2nc(N3CCC(O)CC3)nc3ccccc23)cc1 (centres undefined),pIC50,A549 [1],5.03
COc1ccc(C(C)(O)c2ncnc3c(C)cccc23)cc1 (centres undefined),pIC50,A549 [1],5.81
COc1ccc(C(C)(O)c2nc(N3CCOCC3)nc3ccccc23)cc1 (centres undefined),pIC50,A549 [2],6.85
COc1ccc(C(C)(O)c2ncnc3c(OC)cccc23)cc1 (centres undefined),pIC50,A549 [1],5.68
COc1ccc(C(C)(O)c2nc(-c3c(C)noc3C)nc3ccccc23)cc1 (centres undefined),pIC50,A549 [1],7.23
COc1ccc(C(C)(O)c2nc(-c3cn[nH]c3)nc3ccccc23)cc1 (centres undefined),pIC50,A549 [1],6.60
COc1ccc(C(C)(O)c2nc(-c3coc(C=O)c3)nc3ccccc23)cc1 (centres undefined),pIC50,A549 [1],6.00
COc1ccc(C(C)(O)c2nc(-c3ccco3)nc3ccccc23)cc1 (centres undefined),pIC50,A549 [1],7.44
COc1ccc(C(C)(O)c2nc(-c3ccc(C(F)(F)F)cc3)nc3ccccc23)cc1 (centres undefined),pIC50,A549 [1],5.80
COc1ccc(C(C)(O)c2nc(N3CCC(Cl)CC3)nc3ccccc23)cc1 (centres undefined),pIC50,A549 [1],5.44
CC[C@]1(O)C[C@@H]2CN(CCc3c([nH]c4ccccc34)[C@@](C(=O)OC)(c3cc4c(cc3OC)N(C)[C@H]3[C@@](O)(C(=O)OC)[C@H](OC(C)=O)[C@]5(CC)C=CCN6CC[C@]43[C@@H]65)C2)C1 [VINBLASTINE],pIC50,A549 [1],7.68
COc1ccc(C(C)(O)c2nc(-c3cccnc3)nc3ccccc23)cc1 (centres undefined),pIC50,A549 [1],7.22
COc1ccc(C(C)(O)c2ncnc3cc(OC)ccc23)cc1 (centres undefined),pIC50,A549 [1],< 4.60
COc1ccc(C(C)(O)c2nc(-c3ccc(C#N)s3)nc3ccccc23)cc1 (centres undefined),pIC50,A549 [1],7.89
COc1ccc(C(C)(O)c2nc(-c3ccc(Cl)s3)nc3ccccc23)cc1 (centres undefined),pIC50,A549 [1],6.05
COc1ccc(C(C)(O)c2nc(N3CC=CCC3)nc3ccccc23)cc1 (centres undefined),pIC50,A549 [1],6.15
COc1ccc(C(C)(O)c2nc(N3CCC(F)CC3)nc3ccccc23)cc1 (centres undefined),pIC50,A549 [1],6.12
COc1ccc(C(C)(O)c2ncnc3ccc(F)cc23)cc1 (centres undefined),pIC50,A549 [1],6.46
C=Cc1nc(C(C)(O)c2ccc(OC)cc2)c2ccccc2n1 (centres undefined),pIC50,A549 [1],7.57
COc1ccc(C(C)(O)c2nc(-c3cccs3)nc3ccccc23)cc1 (centres undefined),pIC50,A549 [1],7.32
COc1ccc(C(C)(O)c2nc(-n3cccc3)nc3ccccc23)cc1 (centres undefined),pIC50,A549 [1],7.30
COc1ccc(C(C)(O)c2nc(-c3ccsc3C(C)=O)nc3ccccc23)cc1 (centres undefined),pIC50,A549 [1],7.28
COc1ccc(C(C)(O)c2ncnc3cc(C)ccc23)cc1 (centres undefined),pIC50,A549 [1],< 4.60
COc1ccc(C(C)(O)c2ncnc3ccc(C)cc23)cc1 (centres undefined),pIC50,A549 [1],5.96
COC(=O)Nc1nc2cc(C(=O)c3cccs3)ccc2[nH]1 [NOCODAZOLE],pIC50,A549 [1],6.57
COc1ccc(C(C)(O)c2ncnc3ccc(OC)cc23)cc1 (centres undefined),pIC50,A549 [1],5.29
COc1ccc(C(C)(O)c2nc(Br)nc3ccccc23)cc1 (centres undefined),pIC50,A549 [1],7.30
C/C=C\c1nc(C(C)(O)c2ccc(OC)cc2)c2ccccc2n1 (centres undefined),pIC50,A549 [1],6.42
COc1ccc(C(C)(O)c2nc(-c3ccc(O)cc3)nc3ccccc23)cc1 (centres undefined),pIC50,A549 [1],5.85
COc1ccc(C(C)(O)c2nc(-c3ccc4c(c3)OCO4)nc3ccccc23)cc1 (centres undefined),pIC50,A549 [1],5.93
COc1ccc(C(C)(O)c2nc(N3CCSC3)nc3ccccc23)cc1 (centres undefined),pIC50,A549 [1],6.24
COc1ccc(C(C)(O)c2nc(N3CCC3)nc3ccccc23)cc1 (centres undefined),pIC50,A549 [1],5.96
COc1ccc(C(C)(O)c2nc(N3CC=CC3)nc3ccccc23)cc1 (centres undefined),pIC50,A549 [1],6.66
CNc1nc(C(C)(O)c2ccc(OC)cc2)c2ccccc2n1 (centres undefined),pIC50,A549 [1],7.70
COc1ccc(C(C)(O)c2nc(N3CCC(OC)CC3)nc3ccccc23)cc1 (centres undefined),pIC50,A549 [1],5.91
COc1ccc(C(C)(O)c2nc(N3CCCC3)nc3ccccc23)cc1 (centres undefined),pIC50,A549 [1],5.90
COc1ccc(C(C)(O)c2nc(-c3ccccc3O)nc3ccccc23)cc1 (centres undefined),pIC50,A549 [1],6.65
COc1ccc(C(C)(O)c2nc(N)nc3ccccc23)cc1 (centres undefined),pIC50,A549 [1],7.30
COc1ccc(C(C)(O)c2ncnc3cccc(F)c23)cc1 (centres undefined),pIC50,A549 [1],4.92
COc1ccc(C(C)(O)c2ncnc3c(Cl)cccc23)cc1 (centres undefined),pIC50,A549 [1],6.62
COc1ccc(C(C)(O)c2ncnc3cc(Cl)ccc23)cc1 (centres undefined),pIC50,A549 [1],6.06
COc1ccc(C(C)(O)c2ncnc3c(F)cccc23)cc1 (centres undefined),pIC50,A549 [1],6.37
COc1ccc(C(C)(O)c2nc(-c3ccoc3)nc3ccccc23)cc1 (centres undefined),Activity,HeLa [3],0%
same,Activity,HeLa [4],33%
same,Activity,HeLa [5],44.2%
same,Activity,HeLa [6],50%
same,TGI,HCT-116 [7],Dose-dependent effect
same,Activity,HeLa [8],50%
same,Activity,HeLa [9],52%
same,Activity,HeLa [10],0%
same,pIC50,HCT-116 [11],7.89
same,Activity,HeLa [12],0%
same,Activity,HeLa [13],67%
same,Activity,HeLa [14],57%
same,Activity,HeLa [15],60%
same,Activity,HeLa [16],100%
same,Activity,HeLa [17],5.8%
same,inhibition in vivo at 10 mg/kg,HCT-116 [18],24.6%
same,Activity,HeLa [19],0%
same,Activity,HeLa [20],43%
same,Activity,HeLa [21],52%
same,Activity,HeLa [22],0%
same,Activity,HeLa [23],0%
same,pIC50,A549 [1],7.89
same,inhibition in vivo at 20 mg/kg,HCT-116 [24],62.9%
same,Activity,HeLa [25],0%
same,Activity,HeLa [26],0%
COc1ccc(C(C)(O)c2ncnc3ccc(Cl)cc23)cc1 (centres undefined),pIC50,A549 [1],7.10
COc1ccc(C(C)(O)c2nc(N3CCSCC3)nc3ccccc23)cc1 (centres undefined),pIC50,A549 [1],5.61

# Source: ChEMBL document CHEMBL4616710, “Discovery of a Potent Anticancer Agent PVHD303 with in Vivo Activity” (ACS Med Chem Lett, 2020)
